Data on seven compounds can be found in patent US20220117266A1, “NICKEL CHELATION THERAPY” (priority 2019, published 2022).

The subject of data set [1] is C. jejuni (strain 81-176, ATCC BAA-2151). The data set is described as follows: Growth inhibition, solid plates (CFU). Format: cell-based, Campylobacter jejuni. Particulars: 0.5 mM metal salt in combination with 2 mM DMG.
The test system of the next data set is C. jejuni 81-176. Description: Growth inhibition, liquid 96-well checkerboard (OD600, MIC, MBC). Format: cell-based, Campylobacter jejuni. Particulars: for OD600: DMG 0 mM, 24 h. The procedure: Growth inhibition assays: liquid (96-well) plates experiments. This type of experiment can only be conducted with C. jejuni since the gas requirement for C. concisus (H2-enriched microaerobic) is not compatible with the use of 96-well plates. C. jejuni cells were grown as described above, harvested, and resuspended in sterile NaCl (8 g/L) to an OD600 of 0.1, corresponding approximately to 5×10^8 to 1×10^9 cells/mL. […] Wells were serially (2-fold) diluted in each direction (horizontal and vertical) to introduce all combinations. Wells with no DMG or metal compounds served as (positive) growth controls, and wells with no bacteria served as background (negative growth) controls. A typical protocol and loading plan are described in Table 7. The starting inoculum was at OD600 of 0.05, which corresponds approximately to 2.5×10^8 cells/mL to 5×10^8 cells/mL. After 24 hours incubation under microaerobic conditions at 37° C., OD600 was recorded using a 96 well-plate reader (Microtek). […] Resulting growth (or lack of growth) was examined after overnight culturing; the lowest concentration that inhibits 99.9% of the original culture was defined as MBC. MIC and MBC were determined based on tests (plates) done in triplicate.

Data set [2] has as its target T1, Aβ40 peptide (Homo sapiens, UniProt P05067). Description: Thioflavin T (ThT)-based Aβ40 aggregation assay. Format: biochemical. Set-up: purchased rPeptides, Watkinsville, Ga., USA kit #A-1180-1; host or cells: E. coli. Particulars: for increase of average Aβ40 aggregation rate compared to no supplemental metal control: pH 7.4; for Relative Aβ40 aggregation rate (% control): DMG 0 μM; for Aβ40 peptide aggregation under all pHs tested: pH 6.5, 7.5 or 8.5, 25 mM Aβ40, CuSO4 25 mM, ZnSO4 10 mM or DMG 100 mM (so in the source). The procedure:
Amyloid Beta aggregation. […] This kit contained human recombinant Aβ40 peptide (>97% pure, as determined by manufacturer's HPLC) with the following sequence […] (SEQ ID NO:1), as provided by the manufacturer. […] The aggregation of Aβ40, was shown by the increase in fluorescence (lex=440 nm/lem=485 nm) over time, was followed for 60 min or 120 min, with reading every three or five min, using a Synergy MX reader (Biotek, Winooski, Vt.). A ThT-only background control (no Aβ40 peptide) was included in triplicate in all experiments and subtracted from all readings. The aggregation rate, defined as the increase in fluorescence per min (RFU/min), was calculated by using the formula [A(440,485) at T40min)−A(440,485) at T20min]/20.
Target sequence in this assay (P05067 672-711): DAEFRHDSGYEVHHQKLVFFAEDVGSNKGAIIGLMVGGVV

For data set [3], the target named is T1, Aβ40 peptide. The data set is described as follows: Isothermal titration calorimetry. Format: binding. Set-up: purchased rPeptides, Watkinsville, Ga., USA kit #A-1180-1; host or cells: E. coli; DS (entropy): unit not given here. As to conditions: 20 μM Aβ40, 25° C. The source says: Nickel binding to human recombinant Aβ40 peptide is confirmed by isothermal titration calorimetry. Isothermal titration calorimetry (ITC) has been already used to analyze copper or zinc binding to various Aβ peptides, including Ab40 (Talmard et al. Biochemistry 46, 13658-13666 (2007); Sacco et al. JBIC Journal of Biological Inorganic Chemistry 17, 531-541 (2012); Hatcher et al. The journal of physical chemistry B 112, 8160-8164 (2008)). In the current study, we used ITC to determine whether nickel can bind the Aβ40 peptide. The peptide (same used in ThT-based aggregation assays) was present in the sample cell at a concentration of 20 μM. Twenty injections of NiSO4 (1 mM solution, 5 μM increments in sample cell) were performed every 5 min under constant stirring (350 rpm) at 25° C., and the heat release was measured (FIG. 9). The heat release profile indicates Ni binding to the peptide (FIG. 9, top Panel).
Isothermal Titration Calorimetry. […] Briefly, 1 mg of lyophilized Aβ40 peptide (#A-1157-2, rPeptides) was resuspended with 1% NH4OH to a concentration of 250 μM, sonicated for 15-20 sec, before being diluted to a final concentration of 20 μM Aβ40 using ddH2O and TBS 10×, pH 7.4 (working buffer: NH4OH 0.2%, TBS 1×, pH 7.4 (“NTBS”)). […] All samples were degassed for 15 min at 25° C. before use. Titration was initiated using a program for 20 injections (2.38 μL each, every 5 min) with continuous stirring (350 rpm) at constant temperature (25° C.). ITC data were analyzed using NanoAnalyze 1.2 software (TA Instruments). Data obtained with the control experiment (Aβ40 peptide in sample cell, buffer in syringe) were subtracted from each experiment to account for any injection-related heat change.
Target sequence in this assay (P05067 672-711): as above

Data set [4] concerns C. jejuni (strain NCTC 11168). The data set is described as follows: C. jejuni-chicken colonization experiment. Type of data set: in vivo, chickens. As to conditions: Experiment 1, ad libitum CuSO4 (0.2 mM), 9 days p.i. Here is the method: Since chickens are natural hosts for C. jejuni, and chicken meat is one of the main sources of campylobacteriosis in humans, it was important to test the efficacy of DMG alone or in combination with copper in this animal model. Two independent trials were conducted, as described in FIG. 22. In both trials, the treatment was administered through ad libitum drinks, starting two to three days before C. jejuni inoculation (with strain NCTC 11168), and going through the end of each experiment. […] Nine days after inoculation with C. jejuni, chickens were euthanized, and their ceca were isolated for bacterial count. […] The treatment was administered two days before inoculation with C. jejuni, and chicken ceca were harvested eight days after inoculation.

Data set [5] is described as follows: Acute oral LD50 (literature). Format: in vivo, mice.
For data set [6] the following is noted: cited from earlier work.
The target of data set [7] is T1, Aβ40 peptide. Set-up: yields Aβ peptides of various lengths (38, 40 or 42 amino acids). As to conditions: Talmard et al. 2007; read-out: Kd previously reported; cited from earlier work.
Target sequence in this assay (P05067 672-711 limits assumed): as the sequence (P05067 672-711) above
The conditions of data set [8]: mouse, in vivo.
Where [9] appears, read: 100 mM metal (so in the source).
The mark [10] stands for this setting: experiment A, supplemental metal 10 μM.
Where [11] appears, read: experiment B, supplemental metal 100 μM.

SMILES strings stand for the structures. Several values for one entry are separate records, joined by “and”; a condition that tells them apart may be missing. Identical values can stand only once. Like-named read-outs stand apart in the source and are kept apart here.

On to `[Cl-].[Cl-].[Co+2]` [CO^2+, CoCl2, reference compound], for which the “effect on C. jejuni growth” value in data set [1] is “no noticeable effect”. Further, the MBC in the data set on C. jejuni 81-176 (metal with DMG 0 mM) is > 1020 µM; with C. jejuni 81-176 (metal with DMG 0.5 mM), > 1020 µM; with C. jejuni 81-176 (metal with DMG 1 mM) it was > 1020 µM; with C. jejuni 81-176 (metal with DMG 4 mM), 512 µM. Moreover, the MIC with C. jejuni 81-176 (metal with DMG 0 mM) is > 1020 µM; in the data set on C. jejuni 81-176 (metal with DMG 0.5 mM) it was > 1020 µM; in the data set on C. jejuni 81-176 (metal with DMG 1 mM), > 1020 µM; in the data set with C. jejuni 81-176 (metal with DMG 4 mM) it was 256 µM.
Regarding `O=S(=O)([O-])[O-].[Ni+2]` [Ni, NiSO4, reference compound], the “effect on C. jejuni growth” value in data set [1] is recorded as “no noticeable effect”. In addition, the MBC with C. jejuni 81-176 (metal with DMG 0 mM), with C. jejuni 81-176 (metal with DMG 0.5 mM), in the data set with C. jejuni 81-176 (metal with DMG 1 mM), in the data set with C. jejuni 81-176 (metal with DMG 2 mM) and with C. jejuni 81-176 (metal with DMG 4 mM) was > 1020 µM in each case. Besides, the MIC in the data set with C. jejuni 81-176 (metal with DMG 0 mM), in the data set on C. jejuni 81-176 (metal with DMG 0.5 mM), in the data set on C. jejuni 81-176 (metal with DMG 1 mM), in the data set with C. jejuni 81-176 (metal with DMG 2 mM) and with C. jejuni 81-176 (metal with DMG 4 mM) was > 1020 µM in each case. For the same compound, the entries for the “increase of average Aβ40 aggregation rate compared to no supplemental metal control” value (from here on “increase … to no supplemental metal control”) at Aβ40 peptide [2] (10 mM metal (so in the source)) and on Aβ40 peptide [2] (setting [9]) were 2.5 fold and 5.7 fold, respectively. For the same compound, the “Ni(II)-induced Aβ40 aggregation at pH 6.5, compared to pH 7.5” value on Aβ40 peptide [2] (NiSO4 25 mM (so in the source)) is recorded as “faster”. Also, the “Ni(II)-induced Aβ40 aggregation at pH 8.5” value at Aβ40 peptide [2] (NiSO4 25 mM (so in the source)) was “absent”. Besides, the results for the “Relative Aβ40 aggregation rate (% control)” value at Aβ40 peptide [2] (setting [10]) and at Aβ40 peptide [2] (setting [11]) were 252 ± 8 % control and 567 ± 61 % control, respectively. Further, the “DH (enthalpy)” value on Aβ40 peptide [3] was -1.2 kcal/mol. Moreover, the “DS (entropy)” value on Aβ40 peptide [3] was found to be 86. The apparent stoichiometry on Aβ40 peptide [3] is on record as 0.7 mole Ni(II) per mole of Aβ40 p. In addition, the Kd on Aβ40 peptide [3] (pH 7.4, read-out: apparent Kd) was 4.2 µM and ~4.2 µM.
Consider `O=S(=O)([O-])[O-].[Mn+2]` [MnSO4], for which the “effect on C. jejuni growth” value in data set [1] is listed as “no noticeable effect”.
As to `O=S(=O)([O-])[O-].[Cu+2]` [Cu, CuSO4, reference compound], the OD600 in the data set on C. jejuni 81-176 (CuSO4 2 uM) was determined as 0.29; in the data set on C. jejuni 81-176 (CuSO4 4 uM), 0.23; in the data set on C. jejuni 81-176 (CuSO4 8 uM), 0.31; with C. jejuni 81-176 (CuSO4 16 uM) it was 0.38; in the data set on C. jejuni 81-176 (CuSO4 32 uM), 0.26; in the data set with C. jejuni 81-176 (CuSO4 64 uM), 0.27. The OD600 in the data set with C. jejuni 81-176 (CuSO4 128 uM) is on record as 0.23; in the data set on C. jejuni 81-176 (CuSO4 256 uM) it was 0.38; with C. jejuni 81-176 (CuSO4 512 uM), 0.28; in the data set on C. jejuni 81-176 (CuSO4 1024 uM), 0.43. In addition, the MBC in the data set with C. jejuni 81-176 (metal with DMG 0 mM) and in the data set with C. jejuni 81-176 (metal with DMG 0.5 mM) was > 1020 µM in each case. The MIC in the data set on C. jejuni 81-176 (metal with DMG 0 mM) is > 1020 µM; with C. jejuni 81-176 (metal with DMG 0.5 mM), 1020 µM. For the same compound, the “C. jejuni Average CFUs per g of cecum (x10^8)” value in data set [4] is 5.95 x10^8 CFUs per g of cecum. The “Chickens Cj-free (n=)” value in data set [4] (total n=4) came to 0. Besides, the “Chickens Colonized (n=)” value in [4] (total n=4) was 4. Further, the “increase … to no supplemental metal control” value on Aβ40 peptide [2] (10 mM metal (so in the source)) and on Aβ40 peptide [2] (setting [9]) was “no significant effect” each time. In addition, the “Relative Aβ40 aggregation rate (% control)” value on Aβ40 peptide [2] (setting [10]) is 103 ± 19 % control; at Aβ40 peptide [2] (experiment C, supplemental metal 100 μM), 77 ± 2 % control. Besides, at Aβ40 peptide [2], the “Aβ40 peptide aggregation under all pHs tested” value was “negligible”.
For `CCN(CC)C(=S)SSC(=S)N(CC)CC` [disulfiram], the “LD50 amount per mouse” value in data set [5] is recorded as “approximately 20 μg”. Besides, the “acute oral LD50” value in data set [6] is 1.013 mg/kg.
With `O=S(=O)([O-])[O-].[Zn+2]` [Zn, ZnSO4, reference compound], the “effect on C. jejuni growth” value in [1] was “no noticeable effect”. Besides, the MBC with C. jejuni 81-176 (metal with DMG 0 mM), with C. jejuni 81-176 (metal with DMG 0.5 mM), in the data set with C. jejuni 81-176 (metal with DMG 1 mM), with C. jejuni 81-176 (metal with DMG 2 mM) and in the data set with C. jejuni 81-176 (metal with DMG 4 mM) was > 1024 µM throughout. Also, the MIC in the data set on C. jejuni 81-176 (metal with DMG 0 mM), with C. jejuni 81-176 (metal with DMG 0.5 mM), in the data set with C. jejuni 81-176 (metal with DMG 1 mM), in the data set on C. jejuni 81-176 (metal with DMG 2 mM) and with C. jejuni 81-176 (metal with DMG 4 mM) was 512 µM throughout. Further, on Aβ40 peptide [7], the Kd is 7 ± 3 µM. The “increase … to no supplemental metal control” value was determined as 5 fold on Aβ40 peptide [2] (10 mM metal (so in the source)) and 14 fold on Aβ40 peptide [2] (setting [9]). Moreover, the results for the “Relative Aβ40 aggregation rate (% control)” value at Aβ40 peptide [2] (setting [10]) and on Aβ40 peptide [2] (setting [11]) were 505 ± 29 % control and 1423 ± 258 % control, respectively. Further, the “Aβ40 peptide aggregation under all pHs tested” value at Aβ40 peptide [2] is “fastest and sharpest increase in fluorescence”.
Regarding `CC(=NO)C(C)=NO` [D-1885, Dimethylglyoxime], in data set [8], the “condition of animals given chelator alone” value is given as “appeared ill”.

One may read the MBC as the smallest concentration meeting the test's criterion for killing. A word on the MIC: it is the lowest concentration found to suppress growth.
